Earlier results, collected in patent US7396658B2, “Methods for screening HIF like ouabain-resistant Na+—K+-ATPase agents” (priority 1998, dated 2008).

Tests used:
[1] = molecular target: T1, ouabain-resistant α1 isoform (obtained from rat kidney) (Rattus norvegicus, UniProt P06685); conditions: α1 from rat kidney vs α2/α3 from rat brain axolemma; factor greater
T1 construct: the ouabain-resistant α1 isoform (obtained from rat kidney); host or cells: rat kidney tissue

[2] = molecular target: ouabain-resistant Na^+—K^+-ATPase (Rattus norvegicus, UniProt P06685); conditions: generally needed

In the case of C[C@@H]1O[C@@H](O[C@H]2C[C@@H](O)[C@]3(CO)[C@H]4[C@H](O)C[C@]5(C)[C@@H](C6=CC(=O)OC6)CC[C@]5(O)[C@@H]4CC[C@]3(O)C2)[C@H](O)[C@H](O)[C@H]1O [ouabain], the “concentrations of ouabain required for inactivation of the ouabain-resistant α1 isoform, relative to that for inactivating the ouabain-sensitive α2/α3 isoforms” value [1] is given as 10^2-10^3 and the “concentration needed to inhibit ouabain-resistant Na+-K+-ATPases relative to that inhibiting ouabain sensitive Na+-K+-ATPase” value [2] is given as ≥ 100 fold.
